One data set in a line: Solubility. In kind it is physicochemical.
For another data set, the target named is T1, aldose reductase (Bos taurus, UniProt P16116).
T1 construct: partially purified aldose reductase derived from bovine lenses; from tissue; host or cells: bovine lenses
The data set is described as follows: Aldose reductase inhibitory activity. Type of data set: biochemical, bovine (lenses). The settings on record: partially purified bovine lens enzyme. The protocol:
The preparation of an aldose reductase and the quantitative analysis of its enzymatic activity were effected in accordance with the method described by Hayman et al. in "Journal of Biological Chemistry" 240, 877 (1965). It was a partially purified aldose reductase derived from bovine lenses that was employed as an enzyme. Placed in a quartz cell in a spectrophotometer photometer was 2.4 ml of a 5×10^- 5M NADPH solution dissolved in 2/15M phosphate buffer (pH 6.0), 0.4 ml of 15 milli-units/ml solution of the enzyme and 0.1 ml of an aqueous aldostatin of one of various concentration. The contents were pre-incubated at 37° C. for 4 minutes. […] The reduction of the absorbance at 340 nm was traced at 37° C. for 4 minutes. At that time, the value (B) of tan θ was determined. Similarly, the reduction of the absorbance at 340 nm without addition of the inhibitor "aldostatin" was tracked. At that time, the value (A) of tan θ was determined. Percent inhibition (%) was calculated as follows. [formula]
The amount of inhibitor for 50% inhibition was expressed as IC50.

The test system of another data set is mice. The data set is described as follows: Acute toxicity. Type of data set: in vivo. The settings on record: i.v., dose of 200 mg/kg.

SMILES strings stand for the structures. pIC50: −log10 of the molar value.

As to `O=CN[C@@H](Cc1ccc(O)c(-c2cc(C[C@H](NC=O)C(=O)O)ccc2O)c1)C(=O)O` [aldostatin], the solubility entry in the data set “Solubility” (acetone) was “slightly soluble”; in “Solubility” (benzene) it was “insoluble”; in the data set “Solubility” (chloroform), “slightly soluble”; in “Solubility” (dimethylsulfoxide), “soluble”; in the data set “Solubility” (ethyl acetate) it was “slightly soluble”; in the data set “Solubility” (hexane), “insoluble”. Also, the values for the solubility entry in “Solubility” (methanol), in the data set “Solubility” (petroleum ether) and in the data set “Solubility” (water) were “soluble”, “insoluble” and “soluble”, respectively. Further, the negative-log IC50 (pIC50) was 5.58 on aldose reductase (substrate glucose (5.0 × 10^-2 M)) and 5.92 at aldose reductase (substrate glyceraldehyde (5.0 × 10^-4 M), NADPH, pH 6.0, 37° C.). Besides, the “toxic effect (acute toxicity)” value with mice is “no toxic effect”.

What is called pIC50 is −log10 of the IC50, conventionally taken in molar units. Higher therefore signals a low IC50.

The record behind these values is patent publication US4749571A, “Physiologically-active novel substance "Aldostatin" and production method thereof” (Toyo Jozo Co., Ltd., priority 1986, dated 1988).
